Reference: patent US20260272881A1, “QTX125 DRUG FORMULATIONS” (Quimatryx, S.L., priority 2022, published 2026)
≈ marks a conversion by molar mass, not a printed value.

Tests used:
[1] = tested on: rats, mice and dogs; details: range of animal species including rats; cited from earlier work
[2] = Solubility trials of QTX125 formulations (mixed 24 hours at room temperature); type: physicochemical; details: aqueous HPβCD solution (HPβCD as only excipient), aqueous with cosolvent or surfactant or cyclodextrin, thermodynamic from solid; with HPβCD alone (Example 1.3)
Experimental: The parameters required for the HPLC method used to determine the concentration of QTX125 in solution is set out below.
HPLC determination of the percentage of QTX125 in the solutions below was determined using the protocols set out above.
Assay (% LC) was determined by comparing the area of the peak for QTX125 to a calibration curve determined by running samples of known concentration of QTX125 (standards) on the HPLC.

[3] = Genotoxicity (clastogenicity, aneugenicity)
[4] = Pharmacokinetic properties (half-lives, distribution volumes); type: in vivo; details: compared with other histone deacetylase inhibitors
[5] = Solubility in water and stability in solution of QTX125 (background); type: physicochemical
[6] = target: T1, HDAC 6 (Homo sapiens, UniProt Q9UBN7); details: cited from earlier work
T1 sequence (Q9UBN7 1-1215): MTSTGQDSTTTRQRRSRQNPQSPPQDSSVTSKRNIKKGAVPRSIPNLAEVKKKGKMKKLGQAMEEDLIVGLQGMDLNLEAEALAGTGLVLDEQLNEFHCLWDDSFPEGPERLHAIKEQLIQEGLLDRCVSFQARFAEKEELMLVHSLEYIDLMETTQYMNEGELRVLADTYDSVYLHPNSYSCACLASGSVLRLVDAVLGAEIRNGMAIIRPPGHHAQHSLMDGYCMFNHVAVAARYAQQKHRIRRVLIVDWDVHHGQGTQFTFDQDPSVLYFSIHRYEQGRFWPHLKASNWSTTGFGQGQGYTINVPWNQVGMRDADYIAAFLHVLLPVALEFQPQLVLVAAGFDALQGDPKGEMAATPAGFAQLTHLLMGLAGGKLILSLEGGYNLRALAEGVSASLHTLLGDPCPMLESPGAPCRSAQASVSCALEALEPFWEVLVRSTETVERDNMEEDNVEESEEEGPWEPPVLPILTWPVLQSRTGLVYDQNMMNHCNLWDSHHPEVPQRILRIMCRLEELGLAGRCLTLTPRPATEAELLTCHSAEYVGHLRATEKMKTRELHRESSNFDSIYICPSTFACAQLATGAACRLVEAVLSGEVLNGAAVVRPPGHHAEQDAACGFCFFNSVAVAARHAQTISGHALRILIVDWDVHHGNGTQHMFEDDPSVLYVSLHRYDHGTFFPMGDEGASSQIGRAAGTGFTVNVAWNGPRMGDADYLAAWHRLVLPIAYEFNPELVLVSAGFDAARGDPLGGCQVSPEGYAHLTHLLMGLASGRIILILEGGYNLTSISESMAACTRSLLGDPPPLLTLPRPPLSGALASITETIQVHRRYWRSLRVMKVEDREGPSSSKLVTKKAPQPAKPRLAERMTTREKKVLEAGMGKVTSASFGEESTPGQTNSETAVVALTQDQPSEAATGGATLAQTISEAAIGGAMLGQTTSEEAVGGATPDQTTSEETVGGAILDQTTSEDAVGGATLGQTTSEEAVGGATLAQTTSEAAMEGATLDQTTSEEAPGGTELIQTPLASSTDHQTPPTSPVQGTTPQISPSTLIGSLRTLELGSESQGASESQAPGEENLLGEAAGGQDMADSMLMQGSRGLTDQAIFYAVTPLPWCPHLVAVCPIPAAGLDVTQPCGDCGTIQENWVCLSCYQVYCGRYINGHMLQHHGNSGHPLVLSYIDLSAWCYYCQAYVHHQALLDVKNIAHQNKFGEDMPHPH

[7] = tested on: mantle cell lymphoma; details: mantle cell lymphoma xenograft murine model; cited from earlier work
[8] = tested on: lung cancer; details: lung cancer xenograft murine model; cited from earlier work
[9] = tested on: pancreatic cancer; details: pancreatic cancer xenograft murine model; cited from earlier work
[10] = tested on: multiple sclerosis mice models; details: two different multiple sclerosis mice models; cited from earlier work
[11] = hydroxamic acids such as QTX125; cited from earlier work
[12] = acute toxicity studies; cited from earlier work
[13] = tested on: mice; details: cited from earlier work

2-hydroxypropyl-β-cyclodextrin
tolerance [1]: well tolerated

O=C(NO)c1ccc(CNC(=O)c2[nH]c(-c3ccc(O)cc3)cc2-c2ccoc2)cc1 [QTX125, 3-(3-Furyl)-N-{4-[(hydroxyamino)carbonyl]benzyl}-5-(4-hydroxyphenyl)-1 Hpyrrole-2-carboxamide]
solubility at 24 h [2]: 140 µg/mL (≈ 335 µM) | genotoxicity, in particular clastogenicity or aneugenicity [3]: no evidence of genotoxicity | pharmacokinetic properties (half-lives and distribution volumes) [4]: higher half-lives and distribution volumes | stability in solution [5]: physical and chemical instability in solution | HDAC 6 inhibition [6]: highly selective and highly potent | antitumoral efficacy [7]: high antitumoral efficacy | antitumoral efficacy [8]: high antitumoral efficacy | antitumoral efficacy [9]: high antitumoral efficacy | efficacy [10]: high efficacy | solubility in water [11]: very low solubility in water

sulfobutyl ether β cyclodextrin [SBβCD]
acute toxicity [12]: no observable effects | renal histopathology [13]: no negative renal histopathology
